The record followed here is US10822319B2, “Crystal of DPP-IV long-acting inhibitor and salt” (priority 2016, dated 2020).

Data set [1] is described as follows: Stability test of the crystal of the compound represented by Formula I. It is filed as physicochemical. The text has this:
Samples were taken on day 5 or day 10 and tested, respectively, and the results were compared with the initial results.

A short description of data set [2]: Pharmacokinetics in Beagle dogs. As to conditions: plasma, 2 mg/kg (in free form); for MRT last: read-out: MRT(0−t); for bioavailability: relative to the compound represented by Formula I, read-out: Relative F %. It is filed as in vivo. The method, then: Male Beagle dogs were fasted for about 12 h prior to administration and had free access to water. The dogs were also fasted for 4 hours after administration. Blood samples (0.8 mL) were taken from the forelimb vein of the subject Beagle dogs at 0.25, 0.5, 1, 2, 4, 6, 8, 10, 24, 30, 48, and 72 h after administration. The samples were then placed in EDTA-K2 centrifuge tubes, stored at 4° C., and centrifuged for 10 min at a speed of 4000 rpm at 4° C. within 0.5 h after blood collection to separate plasma. The plasma was stored at […] within 1 h after collecting all the plasma.
300 μL of a solution of an internal standard substance in methanol was added to 50 μL of the plasma sample to be tested and a standard curve sample, respectively. The resulting mixture was mixed uniformly by shaking for 5 min, and centrifuged for 10 min at a speed of 13000 rpm. Then 80 μL of supernatant was taken, and 5 μL of the supernatant was pipetted for LC/MS/MS determination, and the chromatogram was recorded.

[3] abbreviates: High Humidity (RH92.5%, 25° C.), Day 5.
[4] abbreviates: High Humidity (RH92.5%, 25° C.), Day 10.
The mark [5] stands for this setting: Light Irradiation (6000 lux), Day 5.
Setting [6] is: Light Irradiation (6000 lux), Day 10.
The mark [7] stands for this setting: male, Beagle, dog, po, 2 mg/kg, crystalline form.
Setting [8] is: male Beagle dogs, crystalline form.
[9] abbreviates: male, Beagle, dog, oral, 2 mg/kg, crystalline form.

Where two headings read alike, the source gives them in different places.

The AUC(0-inf) is total exposure, with the tail of the curve extrapolated. The low end stands for less exposure, the high end for more exposure. For orientation: AUC(0-t) means exposure summed from dosing to a finite time, without extrapolation to infinity. What is called half-life is the time in which the quantity being followed falls by half. As a reminder, the Cmax is the peak of the concentration-time curve. What is called Tmax is the time at which the peak concentration occurs.

Turning to `CS(=O)(=O)c1ccc2c(c1)CN([C@H]1CO[C@H](c3cc(F)ccc3F)[C@@H](N)C1)C2` [(2R,3S,5R)-5-(5-methanesulfonylisoindolin-2-yl)-2-(2,5-difluorophenyl)tetrahydro-2H-pyran-3-amine], the “Content (%)” value in data set [1] (40° C., Day 5) is reported as 99.6%; in data set [1] (40° C., Day 10), 99.6%; in data set [1] (60° C., Day 5), 100.2%; in data set [1] (60° C., Day 10), 99.4%; in data set [1] (Day 0) it was 99.1%; in data set [1] (setting [3]), 100.3%. Further, the results for the “Content (%)” value in data set [1] (setting [4]), in data set [1] (setting [5]) and in data set [1] (setting [6]) were 99.9%, 99.5% and 99.3%, respectively. Also, the “Total impurity (%)” value in data set [1] (40° C., Day 5) turned out to be 0.31%; in data set [1] (40° C., Day 10), 0.37%; in data set [1] (60° C., Day 5), 0.30%; in data set [1] (60° C., Day 10), 0.33%; in data set [1] (Day 0), 0.39%; in data set [1] (setting [3]), 0.27%. Besides, the entries for the “Total impurity (%)” value in data set [1] (setting [4]), in data set [1] (setting [5]) and in data set [1] (setting [6]) were 0.32%, 0.33% and 0.44%, respectively. Besides, the Appearance result in data set [1] (all conditions and days (Day 0, 40° C., 60° C., high humidity, light irradiation)) is recorded as “Off-white powdered solid”.
Take `CS(=O)(=O)c1ccc2c(c1)CN([C@H]1CO[C@H](c3cc(F)ccc3F)[C@@H](N)C1)C2` [The compound represented by Formula I, (2R,3S,5R)-5-(5-methanesulfonylisoindolin-2-yl)-2-(2,5-difluorophenyl)tetrahydro-2H-pyran-3-amine]: in data set [2] (setting [7]), the AUC(0-inf) was 15800 ng·h/mL, the AUC(0-t) was 15200 ng·h/mL, the half-life is 16.4 h and the MRT last amounted to 20.6 h. Moreover, in data set [2] (male, Beagle, dog, po, 2 mg/kg, crystalline form, read-out: Cmax), the peak concentration (Cmax) turned out to be 926 ng/mL. The Tmax in data set [2] (male, Beagle, dog, po, 2 mg/kg, crystalline form, read-out: Tmax) turned out to be 6 h. In data set [2] (male, Beagle, dog, po, 2 mg/kg), the bioavailability came to 100%.
Consider `CS(=O)(=O)c1ccc2c(c1)CN([C@H]1CO[C@H](c3cc(F)ccc3F)[C@@H](N)C1)C2` [The phosphate of the compound represented by Formula I] [Phosphate of (2R,3S,5R)-5-(5-methanesulfonylisoindolin-2-yl)-2-(2,5-difluorophenyl)tetrahydro-2H-pyran-3-amine], for which, in data set [2] (setting [8]), the “AUC(0−t)” value came out at 22746 ng·h/mL, the “AUC(0−∞)” value was found to be 23508 ng·h/mL, the “Cmax” value is recorded as 1746 ng/mL and the “MRT(0−t)” value turned out to be 17.9 h. In data set [2] (setting [8]), the “Tmax” value amounted to 0.67 h and the “t1/2” value is given as 16.9 h.
With `CS(=O)(=O)c1ccc2c(c1)CN([C@H]1CO[C@H](c3cc(F)ccc3F)[C@@H](N)C1)C2` [fumarate of (2R,3S,5R)-5-(5-methanesulfonylisoindolin-2-yl)-2-(2,5-difluorophenyl)tetrahydro-2H-pyran-3-amine], in data set [2] (setting [9]), the area under the curve AUC(0-inf) came to 20300 ng·h/mL, the AUC(0-t) came to 19500 ng·h/mL, the half-life is 16.6 h and the MRT last is 20.3 h. Further, the Cmax in data set [2] (male, Beagle, dog, oral, 2 mg/kg, crystalline form, read-out: Cmax) came to 1220 ng/mL. The time of peak concentration (Tmax) in data set [2] (male, Beagle, dog, oral, 2 mg/kg, crystalline form, read-out: Tmax) turned out to be 0.75 h. Besides, in data set [2] (male, Beagle, dog, oral, 2 mg/kg), the bioavailability was 152%.
